Measurements taken from PubChem BioAssay (NCI).
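Five concentrations, 48 hours, 96-well plates. TGI marks complete inhibition of growth.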

Key:
Assay in all cases: DTP human tumour cell line panel, 48 h
SK-MEL-2 melanoma = system: SK-MEL-2 melanoma
MDA-MB-231 breast = system: MDA-MB-231 breast
HCT-116 colon = system: HCT-116 colon
RXF 393 renal = system: RXF 393 renal
MOLT-4 leukemia = system: MOLT-4 leukemia
SF-268 CNS = system: SF-268 CNS
NCI-H460 lung = system: NCI-H460 lung
HOP-92 NSCLC = system: HOP-92 NSCLC
MDA-MB-435 = system: MDA-MB-435
PC-3 prostate = system: PC-3 prostate
NCI-H226 lung = system: NCI-H226 lung
LOX IMVI melanoma = system: LOX IMVI melanoma
T-47D breast = system: T-47D breast
SNB-19 CNS = system: SNB-19 CNS
SK-MEL-5 melanoma = system: SK-MEL-5 melanoma
OVCAR-4 ovarian = system: OVCAR-4 ovarian
UACC-62 melanoma = system: UACC-62 melanoma
IGROV1 ovarian = system: IGROV1 ovarian
A549 NSCLC = system: A549 NSCLC
M14 melanoma = system: M14 melanoma
RPMI-8226 leukemia = system: RPMI-8226 leukemia
HT29 colon = system: HT29 colon
K-562 leukemia = system: K-562 leukemia
SK-MEL-28 melanoma = system: SK-MEL-28 melanoma
OVCAR-8 ovarian = system: OVCAR-8 ovarian
COLO 205 colon = system: COLO 205 colon
MCF7 breast = system: MCF7 breast
HCT-15 colon = system: HCT-15 colon
OVCAR-5 ovarian = system: OVCAR-5 ovarian
HS 578T breast = system: HS 578T breast
SNB-75 CNS = system: SNB-75 CNS
SR leukemia = system: SR leukemia
HOP-62 NSCLC = system: HOP-62 NSCLC
KM12 colon = system: KM12 colon
NCI-H522 lung = system: NCI-H522 lung
BT-549 breast = system: BT-549 breast
NCI/ADR-RES ovarian = system: NCI/ADR-RES ovarian
MALME-3M melanoma = system: MALME-3M melanoma
ACHN renal = system: ACHN renal
CAKI-1 renal = system: CAKI-1 renal
SF-295 CNS = system: SF-295 CNS
OVCAR-3 ovarian = system: OVCAR-3 ovarian
MDA-N = system: MDA-N
EKVX NSCLC = system: EKVX NSCLC
786-0 renal = system: 786-0 renal
UO-31 renal = system: UO-31 renal
A498 renal = system: A498 renal
SN12C renal = system: SN12C renal
TK-10 renal = system: TK-10 renal
U251 CNS = system: U251 CNS
UACC-257 melanoma = system: UACC-257 melanoma
DU-145 prostate = system: DU-145 prostate
CCRF-CEM leukemia = system: CCRF-CEM leukemia
SF-539 CNS = system: SF-539 CNS
SK-OV-3 ovarian = system: SK-OV-3 ovarian
SW-620 colon = system: SW-620 colon
HL-60(TB) leukemia = system: HL-60(TB) leukemia
NCI-H23 lung = system: NCI-H23 lung

Measured: TGI

NCCCN1CCN(c2ccccc2)CC1
> 100 µM: SK-MEL-2 melanoma | MDA-MB-231 breast | HCT-116 colon | RXF 393 renal | MOLT-4 leukemia | SF-268 CNS | NCI-H460 lung | HOP-92 NSCLC | MDA-MB-435 | PC-3 prostate | NCI-H226 lung | LOX IMVI melanoma | T-47D breast | SNB-19 CNS | SK-MEL-5 melanoma | OVCAR-4 ovarian | UACC-62 melanoma | IGROV1 ovarian | A549 NSCLC | M14 melanoma | RPMI-8226 leukemia | HT29 colon | K-562 leukemia | SK-MEL-28 melanoma | OVCAR-8 ovarian | COLO 205 colon | MCF7 breast | HCT-15 colon | OVCAR-5 ovarian | HS 578T breast | SNB-75 CNS | SR leukemia | HOP-62 NSCLC | KM12 colon | NCI-H522 lung | BT-549 breast | NCI/ADR-RES ovarian | MALME-3M melanoma | ACHN renal | CAKI-1 renal | SF-295 CNS | MDA-N | EKVX NSCLC | 786-0 renal | UO-31 renal | A498 renal | SN12C renal | TK-10 renal | U251 CNS | UACC-257 melanoma | DU-145 prostate
87.7 µM: OVCAR-3 ovarian

OCCCNCc1ccncc1
> 100 µM: SK-MEL-2 melanoma | MDA-MB-231 breast | HCT-116 colon | CCRF-CEM leukemia | RXF 393 renal | MOLT-4 leukemia | SF-268 CNS | NCI-H460 lung | HOP-92 NSCLC | MDA-MB-435 | PC-3 prostate | NCI-H226 lung | LOX IMVI melanoma | T-47D breast | SNB-19 CNS | SK-MEL-5 melanoma | OVCAR-4 ovarian | UACC-62 melanoma | SF-539 CNS | IGROV1 ovarian | A549 NSCLC | SK-OV-3 ovarian | M14 melanoma | RPMI-8226 leukemia | HT29 colon | K-562 leukemia | SK-MEL-28 melanoma | OVCAR-8 ovarian | COLO 205 colon | MCF7 breast | SW-620 colon | HCT-15 colon | OVCAR-5 ovarian | HS 578T breast | SNB-75 CNS | SR leukemia | HOP-62 NSCLC | KM12 colon | NCI-H522 lung | BT-549 breast | NCI/ADR-RES ovarian | MALME-3M melanoma | ACHN renal | HL-60(TB) leukemia | CAKI-1 renal | SF-295 CNS | OVCAR-3 ovarian | MDA-N | EKVX NSCLC | 786-0 renal | UO-31 renal | NCI-H23 lung | A498 renal | SN12C renal | TK-10 renal | U251 CNS | DU-145 prostate

c1ccc2c(CC3NCCN3)cccc2c1
> 100 µM: SK-MEL-2 melanoma | MDA-MB-231 breast | HCT-116 colon | CCRF-CEM leukemia | RXF 393 renal | MOLT-4 leukemia | SF-268 CNS | NCI-H460 lung | HOP-92 NSCLC | MDA-MB-435 | PC-3 prostate | NCI-H226 lung | LOX IMVI melanoma | T-47D breast | SNB-19 CNS | SK-MEL-5 melanoma | OVCAR-4 ovarian | UACC-62 melanoma | SF-539 CNS | IGROV1 ovarian | A549 NSCLC | SK-OV-3 ovarian | M14 melanoma | RPMI-8226 leukemia | HT29 colon | K-562 leukemia | SK-MEL-28 melanoma | OVCAR-8 ovarian | COLO 205 colon | MCF7 breast | SW-620 colon | HCT-15 colon | OVCAR-5 ovarian | HS 578T breast | SNB-75 CNS | SR leukemia | HOP-62 NSCLC | KM12 colon | NCI-H522 lung | BT-549 breast | NCI/ADR-RES ovarian | MALME-3M melanoma | ACHN renal | HL-60(TB) leukemia | CAKI-1 renal | SF-295 CNS | OVCAR-3 ovarian | MDA-N | EKVX NSCLC | 786-0 renal | NCI-H23 lung | A498 renal | SN12C renal | TK-10 renal | U251 CNS | UACC-257 melanoma | DU-145 prostate

CN(C)CCNc1ccc(NCC[N+](C)(C)Cc2ccc([N+](=O)[O-])cc2)c2c1C(=O)c1ccccc1C2=O
13.6 µM: HL-60(TB) leukemia
> 25 µM: SK-MEL-2 melanoma | MDA-MB-231 breast | HCT-116 colon | RXF 393 renal | MOLT-4 leukemia | SF-268 CNS | HOP-92 NSCLC | MDA-MB-435 | PC-3 prostate | NCI-H226 lung | LOX IMVI melanoma | T-47D breast | SK-MEL-5 melanoma | UACC-62 melanoma | IGROV1 ovarian | A549 NSCLC | SK-OV-3 ovarian | M14 melanoma | RPMI-8226 leukemia | HT29 colon | SK-MEL-28 melanoma | OVCAR-8 ovarian | COLO 205 colon | MCF7 breast | SW-620 colon | OVCAR-5 ovarian | HS 578T breast | SNB-75 CNS | SR leukemia | HOP-62 NSCLC | KM12 colon | NCI-H522 lung | BT-549 breast | NCI/ADR-RES ovarian | MALME-3M melanoma | ACHN renal | CAKI-1 renal | SF-295 CNS | OVCAR-3 ovarian | MDA-N | EKVX NSCLC | 786-0 renal | UO-31 renal | NCI-H23 lung | A498 renal | SN12C renal | TK-10 renal | U251 CNS | UACC-257 melanoma | DU-145 prostate

C/C(=N\NC(=O)c1ccncc1)c1ccccc1Cl
> 100 µM: SK-MEL-2 melanoma | MDA-MB-231 breast | HCT-116 colon | CCRF-CEM leukemia | RXF 393 renal | MOLT-4 leukemia | SF-268 CNS | NCI-H460 lung | HOP-92 NSCLC | MDA-MB-435 | PC-3 prostate | NCI-H226 lung | LOX IMVI melanoma | T-47D breast | SNB-19 CNS | SK-MEL-5 melanoma | OVCAR-4 ovarian | UACC-62 melanoma | SF-539 CNS | IGROV1 ovarian | A549 NSCLC | SK-OV-3 ovarian | M14 melanoma | RPMI-8226 leukemia | HT29 colon | K-562 leukemia | SK-MEL-28 melanoma | OVCAR-8 ovarian | COLO 205 colon | MCF7 breast | SW-620 colon | HCT-15 colon | OVCAR-5 ovarian | HS 578T breast | SNB-75 CNS | SR leukemia | HOP-62 NSCLC | KM12 colon | NCI-H522 lung | BT-549 breast | NCI/ADR-RES ovarian | MALME-3M melanoma | ACHN renal | HL-60(TB) leukemia | CAKI-1 renal | SF-295 CNS | OVCAR-3 ovarian | MDA-N | EKVX NSCLC | 786-0 renal | UO-31 renal | NCI-H23 lung | A498 renal | SN12C renal | TK-10 renal | U251 CNS | UACC-257 melanoma | DU-145 prostate
